For experiment [1], the target named is Tissue factor (Homo sapiens) (UniProt P13726). Nature of the experiment: Inhibition of TNF-alpha-induced tissue factor activity in HUVEC at 10 uM preincubated for 4 hrs assessed after 4 hrs of TNFalpha challenge by one stage clotting assay. Type of experiment: cell-based.
For experiment [2] the target is unchanged. The experiment in a line: Inhibition of LPS-induced tissue factor activity in HUVEC at 10 uM preincubated for 4 hrs assessed after 4 hrs of LPS challenge by one stage clotting assay. Type of experiment: cell-based.
Experiment [3] shares this target. The experiment in a line: Inhibition of TNF-alpha-induced tissue factor activity in HUVEC at 6 uM preincubated for 4 hrs assessed after 4 hrs of TNFalpha challenge by one stage clotting assay. Type of experiment: cell-based.
Experiment [4] has the same target. The experiment in a line: Inhibition of LPS-induced tissue factor activity in HUVEC at 6 uM preincubated for 4 hrs assessed after 4 hrs of LPS challenge by one stage clotting assay. Type of experiment: cell-based.
For experiment [5] the target is unchanged. The experiment in a line: Inhibition of TNF-alpha-induced tissue factor activity in HUVEC at 30 uM preincubated for 4 hrs assessed after 4 hrs of TNFalpha challenge by one stage clotting assay.
The target is the same in experiment [6]. The experiment in a line: Inhibition of LPS-induced tissue factor activity in HUVEC at 30 uM preincubated for 4 hrs assessed after 4 hrs of LPS challenge by one stage clotting assay. Type of experiment: cell-based.
The target is the same in experiment [7]. To be noted: HUVEC, 1 uM.
Description: Inhibition of LPS-induced tissue factor activity in HUVEC at 1 uM preincubated for 4 hrs assessed after 4 hrs of LPS challenge by one stage clotting assay
The target is the same in experiment [8]. To be noted: HUVEC, 3 uM.
Description: Inhibition of TNF-alpha-induced tissue factor activity in HUVEC at 3 uM preincubated for 4 hrs assessed after 4 hrs of TNFalpha challenge by one stage clotting assay
Experiment [9] has the same target. The experiment in a line: Inhibition of LPS-induced tissue factor activity in HUVEC at 0.3 uM preincubated for 4 hrs assessed after 4 hrs of LPS challenge by one stage clotting assay.
Experiment [10] deals with HUVEC. The experiment in a line: Effect on TNF-alpha-induced NF-kappaB activation in HUVEC preincubated for 4 hrs assessed as increase in p65 level after 0.5 hrs of TNFalpha challenge by electrophoretic shift mobility assay. Type of experiment: cell-based. Particulars: Homo sapiens.
Experiment [11] relates to HUVEC. The experiment in a line: Effect on TNF-alpha-induced NF-kappaB activation in HUVEC preincubated for 4 hrs assessed as increase in c-Rel level after 0.5 hrs of TNFalpha challenge by electrophoretic shift mobility assay. Type of experiment: cell-based. To be noted: Homo sapiens.
The test system of experiment [12] is HUVEC. Nature of the experiment: Increase in acetylated histone H4 level in HUVEC preincubated for 4 hrs assessed after 0.5 hrs of TNFalpha challenge by Western blot. Type of experiment: functional, cell-based. Particulars: Homo sapiens. Background: A western blot detects proteins with antibodies after separation by electrophoresis.
Experiment [13] concerns HUVEC. The experiment in a line: Increase in acetylated histone H3 level in HUVEC preincubated for 4 hrs assessed after 0.5 hrs of TNFalpha challenge by Western blot. Type of experiment: functional, cell-based. To be noted: Homo sapiens.
The subject of experiment [14] is HUVEC. Nature of the experiment: Effect on TNF-alpha-induced IkappaB degradation in HUVEC at 1 uM preincubated for 4 hrs assessed after 60 mins of TNFalpha challenge by Western blotting. Particulars: Homo sapiens. Type of experiment: functional, cell-based.
For experiment [15], the system named is HUVEC. The experiment in a line: Effect on TNF-alpha-induced TFkappaB activation assessed as p65/c-Rel binding to TFkappaB in HUVEC preincubated for 4 hrs measured after 0.5 hrs of TNFalpha challenge by electrophoretic shift mobility assay. Type of experiment: cell-based. To be noted: Homo sapiens.
Experiment [16] deals with HUVEC. Nature of the experiment: Effect on TNF-alpha-induced TFkappaB activation assessed as p65/p50 binding to TFkappaB in HUVEC preincubated for 4 hrs measured after 0.5 hrs of TNFalpha challenge by electrophoretic shift mobility assay. Type of experiment: cell-based. To be noted: Homo sapiens.
The target in experiment [17] is T1, Tissue factor (Mus musculus) (UniProt P20352).
T1 sequence (whole entry): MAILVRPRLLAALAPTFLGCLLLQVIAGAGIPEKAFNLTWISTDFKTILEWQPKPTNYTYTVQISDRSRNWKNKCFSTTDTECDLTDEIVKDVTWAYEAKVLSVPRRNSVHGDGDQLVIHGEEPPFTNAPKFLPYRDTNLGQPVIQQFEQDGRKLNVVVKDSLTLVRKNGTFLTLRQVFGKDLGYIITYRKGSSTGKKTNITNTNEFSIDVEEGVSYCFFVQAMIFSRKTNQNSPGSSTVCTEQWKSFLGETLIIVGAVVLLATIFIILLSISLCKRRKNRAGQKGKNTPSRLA
The experiment in a line: Inhibition of LPS-induced tissue factor activity in C57BL/6J mouse macrophages preincubated for 4 hrs assessed after 5 hrs of LPS challenge by one stage clotting assay. To be noted: concentration not given here.

The target of experiment [18] is T1, Tissue factor (Mus musculus). The experiment in a line: Inhibition of TNF-alpha-induced tissue factor activity in C57BL/6J mouse macrophages preincubated for 4 hrs assessed after 5 hrs of TNFalpha challenge by one stage clotting assay. Particulars: concentration not given here.
Experiment [19] has the same target. The experiment in a line: Inhibition of IL-1-beta-induced tissue factor activity in C57BL/6J mouse macrophages preincubated for 4 hrs assessed after 5 hrs of IL1-beta challenge by one stage clotting assay. To be noted: concentration not given here.
The subject of experiment [20] is HUVEC. The experiment in a line: Reduction of ICAM1 mRNA level in TNF-alpha-stimulated HUVEC at 1 uM preincubated for 4 hrs assessed after 1 to 2 hrs of TNFalpha challenge by RT-PCR. Type of experiment: functional, cell-based. Particulars: Homo sapiens.
Experiment [21] deals with T1, Tissue factor (Mus musculus). The experiment in a line: Inhibition of baseline tissue factor activity in non-stimulated C57BL/6J mouse macrophages after 4 hrs by one stage clotting assay. Particulars: concentration not given here.
The subject of another experiment is Mus musculus. The experiment in a line: Decrease in thioglycolate-induced tissue factor activity in C57BL/6J mouse macrophage at 1 mg/kg, ip preincubated for 4 hrs assessed after 5 hrs of thioglycolate challenge by one stage clotting assay. Type of experiment: functional. Set-up: scale not given: the % may be the effect or the level left. To be noted: route intraperitoneal.

The test system of experiment [22] is HUVEC. Nature of the experiment: Reduction of tissue factor mRNA level in TNF-alpha-stimulated HUVEC at 1 uM preincubated for 4 hrs assessed after 1 to 2 hrs of TNFalpha challenge by RT-PCR. Type of experiment: functional, cell-based. To be noted: Homo sapiens.
In experiment [23] the test system is HUVEC. The experiment in a line: Effect on TNF-alpha-induced NF-kappaB activation in HUVEC preincubated for 4 hrs assessed as increase in p50 level after 0.5 hrs of TNFalpha challenge by electrophoretic shift mobility assay. Type of experiment: cell-based. To be noted: Homo sapiens.
Experiment [24] deals with HUVEC. Nature of the experiment: Effect on TNF-alpha-induced SP1 protein level in HUVEC preincubated for 4 hrs assessed after 0.5 hrs of TNFalpha challenge by Western blotting. Type of experiment: functional, cell-based. Particulars: Homo sapiens.
Experiment [25] relates to HUVEC. Nature of the experiment: Effect on TNF-alpha-induced Egr1 protein level in HUVEC preincubated for 4 hrs assessed after 0.5 hrs of TNFalpha challenge by Western blotting. Type of experiment: functional, cell-based. Particulars: Homo sapiens.
The subject of experiment [26] is HUVEC. The experiment in a line: Inhibition of TNF-alpha-induced p65 binding to TFkappaB in HUVEC preincubated for 4 hrs assessed after 0.5 hrs of TNFalpha challenge by chromatin immunoprecipitation assay. Particulars: Homo sapiens. Type of experiment: cell-based.
Experiment [27] relates to HUVEC. The experiment in a line: Inhibition of TNF-alpha-induced p65 binding to ICAM1 NF-kappaB in HUVEC preincubated for 4 hrs assessed after 0.5 hrs of TNFalpha challenge by chromatin immunoprecipitation assay. Type of experiment: cell-based. To be noted: Homo sapiens.
Experiment [28] deals with HUVEC. Nature of the experiment: Effect on TNF-alpha-induced wild type NF-kappaB-dependent ICAM1 promoter expression in HUVEC preincubated for 4 hrs assessed after 6 hrs of TNFalpha challenge by luciferase reporter assay. Type of experiment: cell-based. To be noted: Homo sapiens. (In general: In a reporter assay the amount or activity of a reporter protein is the signal.)

Experiment [29] has as its system HUVEC. Nature of the experiment: Effect on LPS-induced wild type NF-kappaB-dependent ICAM1 promoter expression in HUVEC preincubated for 4 hrs assessed after 6 hrs of LPS challenge by luciferase reporter assay. Type of experiment: cell-based. Particulars: Homo sapiens.
In experiment [30] the test system is HUVEC. The experiment in a line: Inhibition of LPS-induced wild type TFkappaB-dependent tissue factor promoter expression in HUVEC preincubated for 4 hrs assessed after 6 hrs of LPS challenge by luciferase reporter assay. Particulars: Homo sapiens. Type of experiment: cell-based.
For experiment [31], the system named is HUVEC. The experiment in a line: Inhibition of TNFalpha induced wild type TFkappaB-dependent tissue factor promoter expression in HUVEC preincubated for 4 hrs assessed after 6 hrs of TNFalpha challenge by luciferase reporter assay. To be noted: Homo sapiens. Type of experiment: cell-based.
In experiment [32] the test system is HUVEC. Nature of the experiment: Induction of PMA-induced wild type TFkappaB-dependent tissue factor promoter expression in HUVEC at 100 nM preincubated for 4 hrs assessed after 6 hrs of PMA challenge by luciferase reporter assay. Type of experiment: cell-based. Particulars: Homo sapiens.
In experiment [33] the test system is HUVEC. Nature of the experiment: Induction of PMA-induced wild type NF-kappaB-dependent ICAM promoter expression in HUVEC preincubated for 4 hrs assessed after 6 hrs of PMA challenge by luciferase reporter assay relative to control. Type of experiment: cell-based. Particulars: Homo sapiens.
For experiment [34], the system named is HUVEC. The experiment in a line: Inhibition of LPS-induced tissue factor protein expression in HUVEC preincubated for 4 hrs assessed after 4 hrs of LPS challenge by Western blotting. Type of experiment: functional, cell-based. To be noted: Homo sapiens.
For experiment [35], the system named is HUVEC. The experiment in a line: Inhibition of TNF-alpha-induced tissue factor protein expression in HUVEC preincubated for 4 hrs assessed after 4 hrs of TNFalpha challenge by Western blotting. Particulars: Homo sapiens. Type of experiment: functional, cell-based.
For experiment [36], the system named is HUVEC. Nature of the experiment: Effect on TNF-alpha-induced NF-kappaB activation assessed as p65/p50 binding to NF-kappaB in HUVEC at 0.3 uM preincubated for 4 hrs measured after 0.5 hrs of TNFalpha challenge by electrophoretic shift mobility assay. Particulars: Homo sapiens. Type of experiment: cell-based.
Experiment [37] has as its system HUVEC. The experiment in a line: Effect on TNF-alpha-induced NF-kappaB activation assessed as p65/p50 binding to NF-kappaB in HUVEC at 1 uM preincubated for 4 hrs measured after 0.5 hrs of TNFalpha challenge by electrophoretic shift mobility assay. To be noted: Homo sapiens. Type of experiment: cell-based.
Experiment [38] deals with Tissue factor (Homo sapiens) (UniProt P13726). The experiment in a line: Inhibition of TNF-alpha-induced tissue factor activity in HUVEC at 1 uM preincubated for 4 hrs assessed after 4 hrs of TNFalpha challenge by one stage clotting assay. Type of experiment: cell-based.
The test system of experiment [39] is HUVEC. Nature of the experiment: Inhibition of IL-1-beta-induced tissue factor protein expression in HUVEC preincubated for 4 hrs assessed after 4 hrs of IL1-beta challenge by Western blotting. Type of experiment: functional, cell-based. To be noted: Homo sapiens.
For experiment [40], the system named is HUVEC. The experiment in a line: Inhibition of HOSCN-induced tissue factor protein expression in HUVEC preincubated for 4 hrs assessed after 4 hrs of HOSCN challenge by Western blotting. Type of experiment: functional, cell-based. To be noted: Homo sapiens.

This note sets out measurements from ChEMBL document CHEMBL1156493, “Histone deacetylase inhibitors suppress TF-kappaB-dependent agonist-driven tissue factor expression in endothelial cells and monocytes” (J Biol Chem, 2007).

Active and inactive are the calls of the source. The calls are words filed in the database; no cut-off is given here.

Sequence of Tissue factor (Homo sapiens) (P13726 whole entry): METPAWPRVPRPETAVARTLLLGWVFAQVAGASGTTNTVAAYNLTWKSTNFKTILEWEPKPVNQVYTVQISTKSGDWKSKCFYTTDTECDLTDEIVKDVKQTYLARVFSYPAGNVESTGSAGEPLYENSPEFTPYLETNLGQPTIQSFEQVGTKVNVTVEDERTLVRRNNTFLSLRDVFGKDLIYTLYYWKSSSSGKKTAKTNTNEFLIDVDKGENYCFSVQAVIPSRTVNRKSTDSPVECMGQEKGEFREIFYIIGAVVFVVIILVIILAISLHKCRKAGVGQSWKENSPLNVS

For the molecule `CCCC(=O)[O-].[Na+]`, the inhibition in [1] worked out at 90%; in experiment [2], 95%.

`CCCC(CCC)C(=O)O`: the inhibition in experiment [3] came to 81%; in experiment [4], 93%.

Consider `Nc1ccccc1NC(=O)c1ccc(CNC(=O)OCc2cccnc2)cc1`, for which the inhibition was 85% in experiment [5] and 92% in experiment [6].

As for `CCC(=O)CCCCC[C@@H]1NC(=O)[C@H]2CCCCN2C(=O)[C@H](C(C)CC)NC(=O)[C@H](Cc2cn(OC)c3ccccc23)NC1=O` (single isomer, unassigned), the inhibition in experiment [7] amounted to 80%; in [8] it was 85%.

In the case of `CC(/C=C/C(=O)NO)=C\[C@@H](C)C(=O)c1ccc(N(C)C)cc1` [TRICHOSTATIN], the inhibition in experiment [9] was 91%; in experiment [17], 60%; in [18] it was 60%; in [19] it was 60%; in experiment [21], 60%; in experiment [38] it was 95%. Also, the outcome with HUVEC [10], in the experiment on HUVEC [11], with HUVEC [14], with HUVEC [20], in the experiment on HUVEC [23] and in the experiment with HUVEC [24] was inactive. Further, the result in the experiment on HUVEC [25], with HUVEC [27], with HUVEC [28], with HUVEC [29], with HUVEC [33] and in the experiment on HUVEC [36] was inactive. For the same molecule, in the experiment with HUVEC [37], the outcome was inactive. Besides, the result with HUVEC [12], in the experiment on HUVEC [13], in the experiment on HUVEC [15], in the experiment on HUVEC [16], in the experiment with HUVEC [22] and in the experiment on HUVEC [26] was Active. Further, the outcome in the experiment on HUVEC [30], in the experiment on HUVEC [31], in the experiment with HUVEC [34], in the experiment with HUVEC [35], in the experiment with HUVEC [39] and in the experiment on HUVEC [40] was Active. The Activity in the experiment with Mus musculus turned out to be 50%; in the experiment with HUVEC [32], 75%.

A word on the inhibition: it is the percentage by which the read-out fell short of the control.
